Values after ≈ are worked out from the molar mass of the structure shown.
Key:
Candida albicans = test: Antifungal activity against Candida albicans; assay type: functional
A549 = test: Antiproliferative activity against human A549 cells; assay type: functional, cell-based
P388 = test: Antiproliferative activity against mouse P388 cells; assay type: functional, cell-based
[1] = Inhibition of PMA-induced mouse EL-4.IL-2 cell adhesion at 0.003 ug/ml; assay type: functional
[2] = Inhibition of PMA-induced mouse EL-4.IL-2 cell adhesion at 0.025 ug/ml; assay type: functional
Mus musculus = organism: Mus musculus; test: Inhibition of mouse EL-4.IL-2 cell adhesion at 0.003 to 0.025 ug/ml in absence of PMA; assay type: functional; settings: filed as agonist
[3] = Inhibition of PMA-induced mouse EL-4.IL-2 cell adhesion at 0.125 ug/ml; assay type: functional

Row | SMILES | MIC (Candida albicans) [µg/mL] | IC50 (A549) [µg/mL] | IC50 (P388) [µg/mL] | inhibition at 0.003 µg/mL [1] [%] | inhibition at 0.025 µg/mL [2] [%] | Activity (Mus musculus) | inhibition at 0.125 µg/mL [3] [%]
1 | C/C1=C/C(=O)O[C@@H]2C[C@@H](CC[C@H](C)/C=C\C3OC3CC1)O[C@@](O)([C@@H]1CSC(=O)N1)C2 (stereo partly drawn) [6,7-EPOXYLATRUNCULIN A] | 25 (≈ 57.1 µM) | 0.2 (≈ 0.457 µM) | 1.8 (≈ 4.11 µM) | 100 | – | – | –
2 | CC1(C)CCC[C@@]2(C)c3cocc3CC[C@H]12 [EURYFURAN] | – | 1.5 (≈ 6.87 µM) | 1.6 (≈ 7.33 µM) | – | 48 | – | –
3 | C=C1C[C@H](C)C[C@@H]2CC=C[C@@H](C/C=C\C(=O)O[C@H]3C[C@@H](O[C@H]3/C=C/[C@@H]3CC(C)=CCO3)[C@@H](O)[C@@H](O)C1)O2 [FIJIANOLIDE A] | 6.2 (≈ 12 µM) | 1.4 (≈ 2.72 µM) | 1 (≈ 1.94 µM) | – | – | Agonist | –
4 | C/C1=C/C(=O)O[C@@H]2C[C@@H](CC[C@H](C)/C=C\C=C\CC1)O[C@@](O)([C@@H]1CSC(=O)N1)C2 [LATRUNCULIN A] | 15.6 (≈ 37 µM) | – | – | – | – | – | 50

From ChEMBL document CHEMBL1159022, “Isolation of Latrunculin A, 6,7-Epoxylatrunculin A, Fijianolide A, and Euryfuran from a New Genus of the Family Thorectidae” (J Nat Prod, 1992)
